Each block holds one compound with its values, some of them ahead of it.
Legend:
Format in all cases: biochemical
[1] = target: NDM-1 (New Delhi metallo-β-lactamase-1) (Klebsiella pneumoniae, UniProt C7C422); assay: Enzyme inhibition assay, NDM-1; details: read-out: pIC50 NDM-1 (converted)
Procedure: (§1) The biological activity of the compounds of the present invention was tested using standard assay protocols.^7 The following representative enzymes NDM-1 (New Delhi metallo-β-lactamase-1), IMP-1 (Imipenemase-1) and VIM-2 (Veronese metallo-β-lactamase-2) were selected from different clinically relevant B1 metallo-β-lactamases.

[2] = target: VIM-2 (Veronese metallo-β-lactamase-2) (Escherichia coli, UniProt Q5U7L7); assay: Enzyme inhibition assay, VIM-2; details: read-out: pIC50 VIM-2 (converted)
Procedure: as §1

[3] = target: IMP-1 (Imipenemase-1) (Serratia marcescens, UniProt P52699); assay: Enzyme inhibition assay, IMP-1; details: read-out: pIC50 IMP-1 (converted)
IMP-1 (Imipenemase-1), sequence (P52699 19-246, looked up, species assumed): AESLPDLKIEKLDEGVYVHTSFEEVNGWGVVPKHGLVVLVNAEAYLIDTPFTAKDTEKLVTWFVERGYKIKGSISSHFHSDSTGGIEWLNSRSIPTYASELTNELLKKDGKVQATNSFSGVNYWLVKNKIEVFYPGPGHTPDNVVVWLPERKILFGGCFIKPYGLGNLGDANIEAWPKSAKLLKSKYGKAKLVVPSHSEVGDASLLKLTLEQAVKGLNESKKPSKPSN
Procedure: as §1

NDM-1 (New Delhi metallo-β-lactamase-1), sequence (C7C422 29-270, looked up, species assumed): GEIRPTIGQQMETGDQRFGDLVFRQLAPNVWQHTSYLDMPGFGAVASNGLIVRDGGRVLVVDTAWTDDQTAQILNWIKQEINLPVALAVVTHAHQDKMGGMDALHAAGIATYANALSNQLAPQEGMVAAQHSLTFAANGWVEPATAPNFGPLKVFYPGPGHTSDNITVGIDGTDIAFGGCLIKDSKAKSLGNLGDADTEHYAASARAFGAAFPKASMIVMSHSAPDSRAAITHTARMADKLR

SMILES: Cc1cccc2c(-c3cccc([N+](=O)[O-])c3)c(C(=O)O)[nH]c12 [Example 15, 7-methyl-3-(3-nitrophenyl)-1H-indole-2-carboxylic acid]
- IC50 [1]: 0.0251 µM
- IC50 [2]: 0.126 µM
- IC50 [3]: 15.8 µM

SMILES: Cc1cccc2c(-c3cccc(S(C)(=O)=O)c3)c(C(=O)O)[nH]c12 [Example 16, 7-methyl-3-(3-(methylsulfonyl)phenyl)-1H-indole-2-carboxylic acid]
- IC50 [1]: 0.0501 µM
- IC50 [2]: 0.794 µM
- IC50 [3]: 12.6 µM

SMILES: Cc1cccc2c(-c3cccc(N(C)C)c3)c(C(=O)O)[nH]c12 [Example 17, 3-(3-(dimethylamino)phenyl)-7-methyl-1H-indole-2-carboxylic acid]
- IC50 [1]: 0.2 µM
- IC50 [2]: 0.501 µM
- IC50 [3]: > 100 µM

SMILES: Cc1cccc2c(-c3cccc(Br)c3)c(C(=O)O)[nH]c12 [Example 18, 3-(3-bromophenyl)-7-methyl-1H-indole-2-carboxylic acid]
- IC50 [1]: 0.02 µM
- IC50 [2]: 0.0501 µM
- IC50 [3]: 2 µM

SMILES: Cc1cccc2c(-c3ccc4[nH]ncc4c3)c(C(=O)O)[nH]c12 [Example 19, 3-(1H-indazol-5-yl)-7-methyl-1H-indole-2-carboxylic acid]
- IC50 [1]: 0.0316 µM
- IC50 [2]: 0.1 µM
- IC50 [3]: 5.01 µM

SMILES: COc1ccccc1-c1c(C(=O)O)[nH]c2c(C)cccc12 [Example 20, 3-(2-methoxyphenyl)-7-methyl-1H-indole-2-carboxylic acid]
- IC50 [1]: 0.126 µM
- IC50 [2]: 0.2 µM
- IC50 [3]: 79.4 µM

SMILES: Cc1cccc2c(-c3ccn4ncnc4c3)c(C(=O)O)[nH]c12 [Example 21, 3-([1,2,4]triazolo[1,5-a]pyridin-7-yl)-7-methyl-1H-indole-2-carboxylic acid]
- IC50 [1]: 0.126 µM
- IC50 [2]: 0.126 µM
- IC50 [3]: > 100 µM

SMILES: Cc1cccc2c(-c3cncnc3)c(C(=O)O)[nH]c12 [Example 22, 7-methyl-3-(pyrimidin-5-yl)-1H-indole-2-carboxylic acid]
- IC50 [1]: 0.126 µM
- IC50 [2]: 1.26 µM
- IC50 [3]: > 100 µM

SMILES: Cc1cccc2c(-c3ccc(N)cc3)c(C(=O)O)[nH]c12 [Example 23, 3-(4-aminophenyl)-7-methyl-1H-indole-2-carboxylic acid]
- IC50 [1]: 0.0316 µM
- IC50 [2]: 1 µM
- IC50 [3]: 7.94 µM

SMILES: Cc1cccc2c(-c3cccnc3)c(C(=O)O)[nH]c12 [Example 24, 7-methyl-3-(pyridin-3-yl)-1H-indole-2-carboxylic acid]
- IC50 [1]: 0.1 µM
- IC50 [2]: 0.631 µM
- IC50 [3]: 12.6 µM

SMILES: Cc1cccc2c(C3=CCN(C(=O)OC(C)(C)C)CC3)c(C(=O)O)[nH]c12 [Example 25, 3-(1-(tert-butoxycarbonyl)-1,2,3,6-tetrahydropyridin-4-yl)-7-methyl-1H-indole-2-carboxylic acid]
- IC50 [1]: 0.0316 µM
- IC50 [2]: 2 µM
- IC50 [3]: 5.01 µM

More lines, now with the values ahead:

- IC50 [1]: 0.1 µM
- IC50 [2]: 2.51 µM
- IC50 [3]: 39.8 µM
SMILES: Cc1cccc2c(-c3cnn(C)c3)c(C(=O)O)[nH]c12 [Example 26, 7-methyl-3-(1-methyl-1H-pyrazol-4-yl)-1H-indole-2-carboxylic acid]

- IC50 [1]: 0.0631 µM
- IC50 [2]: 0.316 µM
- IC50 [3]: 25.1 µM
SMILES: Cc1cccc2c(-c3ccccc3C#N)c(C(=O)O)[nH]c12 [Example 28, 3-(2-cyanophenyl)-7-methyl-1H-indole-2-carboxylic acid]

- IC50 [1]: 0.00501 µM
- IC50 [2]: 0.251 µM
- IC50 [3]: 0.794 µM
SMILES: Cc1cccc2c(-c3ccc(S(=O)(=O)N(C)C)cc3)c(C(=O)O)[nH]c12 [Example 29, 3-(4-(N,N-dimethylsulfamoyl)phenyl)-7-methyl-1H-indole-2-carboxylic acid]

- IC50 [1]: 0.02 µM
- IC50 [2]: 0.158 µM
- IC50 [3]: 2.51 µM
SMILES: CC(=O)Nc1ccc(-c2c(C(=O)O)[nH]c3c(C)cccc23)cc1 [Example 30, 3-(4-acetamidophenyl)-7-methyl-1H-indole-2-carboxylic acid]

- IC50 [1]: 0.0631 µM
- IC50 [2]: 0.0398 µM
- IC50 [3]: 63.1 µM
SMILES: Cc1cccc2c(-c3cccc4[nH]ncc34)c(C(=O)O)[nH]c12 [Example 31, 3-(1H-indazol-4-yl)-7-methyl-1H-indole-2-carboxylic acid]

Reference: patent US11439622B2 (OXFORD UNIVERSITY INNOVATION LIMITED, priority 2015, dated 2022)
